According to ChEMBL document CHEMBL5233245, “Monocarboxylate transporter 1 and 4 inhibitors as potential therapeutics for treating solid tumours: A review with structure-activity relationship insights” (Eur J Med Chem, 2020):

What follows are compounds tested against T1, Monocarboxylate transporter 1 (Rattus norvegicus) (UniProt P53987) (assay: Inhibition of rat MCT1 expressed in human MDA-MB-231 cells in presence of [3H]-GHB by liquid scintillation spectroscopy analysis). Settings: concentration not given here.
T1 sequence (whole entry): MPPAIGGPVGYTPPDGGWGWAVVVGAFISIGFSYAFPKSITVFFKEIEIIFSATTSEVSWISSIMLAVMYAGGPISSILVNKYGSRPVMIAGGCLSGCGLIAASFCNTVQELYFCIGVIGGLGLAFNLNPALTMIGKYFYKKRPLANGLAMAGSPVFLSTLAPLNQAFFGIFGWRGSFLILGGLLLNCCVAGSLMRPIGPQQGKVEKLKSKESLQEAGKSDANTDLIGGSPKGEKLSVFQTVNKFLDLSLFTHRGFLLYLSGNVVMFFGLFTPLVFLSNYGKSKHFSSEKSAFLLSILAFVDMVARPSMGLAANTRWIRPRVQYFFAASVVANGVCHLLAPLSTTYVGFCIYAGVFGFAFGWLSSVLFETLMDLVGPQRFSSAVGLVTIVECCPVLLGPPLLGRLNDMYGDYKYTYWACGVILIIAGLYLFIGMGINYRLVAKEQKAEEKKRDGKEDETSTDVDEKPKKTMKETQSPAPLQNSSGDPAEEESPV
Type: cell-based
Set-up: concentration or dose not given beside the values

SMILES	inhibition
O=c1c(O)c(-c2ccc(O)cc2O)oc2cc(O)cc(O)c12	100%
COc1ccc(-c2cc(=O)c3c(O)cc(O)cc3o2)cc1O	49%
O=c1cc(-c2ccc(O)c(O)c2)oc2cc(O)cc(O)c12	100%
O=c1c(O)c(-c2ccc(O)c(O)c2)oc2cc(O)cc(O)c12	87%
O=c1cc(-c2ccc(O)cc2)oc2cc(O)cc(O)c12	50%
O=c1c(O)c(-c2ccc(O)c(O)c2)oc2cc(O)ccc12	93%
